Results taken from PubChem BioAssay (NCI).
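Grown in 96-well plates, cells were treated for 48 hours with each compound at five concentrations. Insufficient inhibition: endpoint recorded as highest concentration tested. Here, GI50 denotes the concentration required for 50% inhibition of growth. TGI: total growth inhibition.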

Columns and labels:
Experiment in all cases: NCI anticancer screen, dose series, 48 h
SF-268 CNS = test system: SF-268 CNS
COLO 205 colon = test system: COLO 205 colon
HOP-62 NSCLC = test system: HOP-62 NSCLC
OVCAR-3 ovarian = test system: OVCAR-3 ovarian
A549 NSCLC = test system: A549 NSCLC
OVCAR-4 ovarian = test system: OVCAR-4 ovarian
NCI/ADR-RES ovarian = test system: NCI/ADR-RES ovarian
SNB-19 CNS = test system: SNB-19 CNS
EKVX NSCLC = test system: EKVX NSCLC
HCT-15 colon = test system: HCT-15 colon
SK-OV-3 ovarian = test system: SK-OV-3 ovarian
RPMI-8226 leukemia = test system: RPMI-8226 leukemia
UO-31 renal = test system: UO-31 renal
T-47D breast = test system: T-47D breast
SN12C renal = test system: SN12C renal
K-562 leukemia = test system: K-562 leukemia
SNB-75 CNS = test system: SNB-75 CNS
M14 melanoma = test system: M14 melanoma
HCC-2998 colon = test system: HCC-2998 colon
OVCAR-5 ovarian = test system: OVCAR-5 ovarian
HT29 colon = test system: HT29 colon
HL-60(TB) leukemia = test system: HL-60(TB) leukemia
ACHN renal = test system: ACHN renal
U251 CNS = test system: U251 CNS
NCI-H522 lung = test system: NCI-H522 lung
HOP-92 NSCLC = test system: HOP-92 NSCLC
LOX IMVI melanoma = test system: LOX IMVI melanoma
SF-295 CNS = test system: SF-295 CNS
HS 578T breast = test system: HS 578T breast
786-0 renal = test system: 786-0 renal
NCI-H226 lung = test system: NCI-H226 lung
MDA-MB-435 = test system: MDA-MB-435
IGROV1 ovarian = test system: IGROV1 ovarian
SK-MEL-5 melanoma = test system: SK-MEL-5 melanoma
TK-10 renal = test system: TK-10 renal
MDA-MB-231 breast = test system: MDA-MB-231 breast
MOLT-4 leukemia = test system: MOLT-4 leukemia
PC-3 prostate = test system: PC-3 prostate
OVCAR-8 ovarian = test system: OVCAR-8 ovarian
MALME-3M melanoma = test system: MALME-3M melanoma
SK-MEL-28 melanoma = test system: SK-MEL-28 melanoma
SW-620 colon = test system: SW-620 colon
KM12 colon = test system: KM12 colon
NCI-H460 lung = test system: NCI-H460 lung
RXF 393 renal = test system: RXF 393 renal
A498 renal = test system: A498 renal
DU-145 prostate = test system: DU-145 prostate
CCRF-CEM leukemia = test system: CCRF-CEM leukemia
SF-539 CNS = test system: SF-539 CNS
BT-549 breast = test system: BT-549 breast
UACC-257 melanoma = test system: UACC-257 melanoma
SR leukemia = test system: SR leukemia
SK-MEL-2 melanoma = test system: SK-MEL-2 melanoma
UACC-62 melanoma = test system: UACC-62 melanoma
NCI-H23 lung = test system: NCI-H23 lung

O=C(C[n+]1cccc2cc(Cl)ccc21)c1ccc2c(c1)CCCC2
GI50 (SF-268 CNS): 1440 nM | TGI (SF-268 CNS): 3290 nM | GI50 (COLO 205 colon): 1500 nM | TGI (COLO 205 colon): 3010 nM | GI50 (HOP-62 NSCLC): 1650 nM | TGI (HOP-62 NSCLC): 3850 nM | GI50 (OVCAR-3 ovarian): 875 nM | TGI (OVCAR-3 ovarian): 2260 nM | GI50 (A549 NSCLC): 3700 nM | TGI (A549 NSCLC): 13500 nM | GI50 (OVCAR-4 ovarian): 982 nM | TGI (OVCAR-4 ovarian): 2990 nM | GI50 (NCI/ADR-RES ovarian): 19900 nM | TGI (NCI/ADR-RES ovarian): 67300 nM | GI50 (SNB-19 CNS): 1120 nM | TGI (SNB-19 CNS): 2650 nM | GI50 (EKVX NSCLC): 2460 nM | TGI (EKVX NSCLC): 11300 nM | GI50 (HCT-15 colon): 11800 nM | TGI (HCT-15 colon): 31700 nM | GI50 (SK-OV-3 ovarian): 1720 nM | TGI (SK-OV-3 ovarian): 6940 nM | GI50 (RPMI-8226 leukemia): 910 nM | TGI (RPMI-8226 leukemia): 4090 nM | GI50 (UO-31 renal): 5710 nM | TGI (UO-31 renal): 20400 nM | GI50 (T-47D breast): 1090 nM | TGI (T-47D breast): 2710 nM | GI50 (SN12C renal): 1270 nM | TGI (SN12C renal): 3040 nM | GI50 (K-562 leukemia): 1320 nM | TGI (K-562 leukemia): 10300 nM | GI50 (SNB-75 CNS): 1350 nM | TGI (SNB-75 CNS): 3200 nM | GI50 (M14 melanoma): 1480 nM | TGI (M14 melanoma): 3200 nM | GI50 (HCC-2998 colon): 1600 nM | TGI (HCC-2998 colon): 3280 nM | GI50 (OVCAR-5 ovarian): 1840 nM | TGI (OVCAR-5 ovarian): 4540 nM | GI50 (HT29 colon): 1660 nM | TGI (HT29 colon): 3440 nM | GI50 (HL-60(TB) leukemia): 882 nM | TGI (HL-60(TB) leukemia): 3950 nM | GI50 (ACHN renal): 4910 nM | TGI (ACHN renal): 18500 nM | GI50 (U251 CNS): 595 nM | TGI (U251 CNS): 1860 nM | GI50 (NCI-H522 lung): 1510 nM | TGI (NCI-H522 lung): 4330 nM | GI50 (HOP-92 NSCLC): 1580 nM | TGI (HOP-92 NSCLC): 3220 nM | GI50 (LOX IMVI melanoma): 831 nM | TGI (LOX IMVI melanoma): 2240 nM | GI50 (SF-295 CNS): 1770 nM | TGI (SF-295 CNS): 4220 nM | GI50 (HS 578T breast): 2030 nM | TGI (HS 578T breast): 5430 nM | GI50 (786-0 renal): 2010 nM | TGI (786-0 renal): 5250 nM | GI50 (NCI-H226 lung): 1480 nM | TGI (NCI-H226 lung): 3480 nM | GI50 (MDA-MB-435): 1610 nM | TGI (MDA-MB-435): 3380 nM | GI50 (IGROV1 ovarian): 1520 nM | TGI (IGROV1 ovarian): 4080 nM | GI50 (SK-MEL-5 melanoma): 1260 nM | TGI (SK-MEL-5 melanoma): 2550 nM | GI50 (TK-10 renal): 2210 nM | TGI (TK-10 renal): 4650 nM | GI50 (MDA-MB-231 breast): 1500 nM | TGI (MDA-MB-231 breast): 3250 nM | GI50 (MOLT-4 leukemia): 1410 nM | TGI (MOLT-4 leukemia): 4500 nM | GI50 (PC-3 prostate): 933 nM | TGI (PC-3 prostate): 3610 nM | GI50 (OVCAR-8 ovarian): 2980 nM | TGI (OVCAR-8 ovarian): 11200 nM | GI50 (MALME-3M melanoma): 1200 nM | TGI (MALME-3M melanoma): 2630 nM | GI50 (SK-MEL-28 melanoma): 1620 nM | TGI (SK-MEL-28 melanoma): 3190 nM | GI50 (SW-620 colon): 2030 nM | TGI (SW-620 colon): 4970 nM | GI50 (KM12 colon): 1460 nM | TGI (KM12 colon): 3360 nM | GI50 (NCI-H460 lung): 1860 nM | TGI (NCI-H460 lung): 3680 nM | GI50 (RXF 393 renal): 1690 nM | TGI (RXF 393 renal): 3810 nM | GI50 (A498 renal): 3560 nM | TGI (A498 renal): 13300 nM | GI50 (DU-145 prostate): 1460 nM | TGI (DU-145 prostate): 3330 nM | GI50 (CCRF-CEM leukemia): 1590 nM | TGI (CCRF-CEM leukemia): 8740 nM | GI50 (SF-539 CNS): 1400 nM | TGI (SF-539 CNS): 2850 nM | GI50 (BT-549 breast): 1110 nM | TGI (BT-549 breast): 2970 nM | GI50 (UACC-257 melanoma): 1500 nM | TGI (UACC-257 melanoma): 3580 nM | GI50 (SR leukemia): 758 nM | TGI (SR leukemia): 6180 nM | GI50 (SK-MEL-2 melanoma): 1680 nM | TGI (SK-MEL-2 melanoma): 3410 nM | GI50 (UACC-62 melanoma): 1540 nM | TGI (UACC-62 melanoma): 3490 nM | GI50 (NCI-H23 lung): 1140 nM | TGI (NCI-H23 lung): 4440 nM
